{"source": "patent US20240174662A1", "about": "“SMALL MOLECULE INHIBITORS OF SALT INDUCIBLE KINASES” (Janssen Biotech, Inc., priority 2021, published 2024)", "data": [{"molecular_target": "SIK2 (Homo sapiens (Human), UniProt Q9H0K1)", "sequence (Q9H0K1 whole entry, species assumed)": "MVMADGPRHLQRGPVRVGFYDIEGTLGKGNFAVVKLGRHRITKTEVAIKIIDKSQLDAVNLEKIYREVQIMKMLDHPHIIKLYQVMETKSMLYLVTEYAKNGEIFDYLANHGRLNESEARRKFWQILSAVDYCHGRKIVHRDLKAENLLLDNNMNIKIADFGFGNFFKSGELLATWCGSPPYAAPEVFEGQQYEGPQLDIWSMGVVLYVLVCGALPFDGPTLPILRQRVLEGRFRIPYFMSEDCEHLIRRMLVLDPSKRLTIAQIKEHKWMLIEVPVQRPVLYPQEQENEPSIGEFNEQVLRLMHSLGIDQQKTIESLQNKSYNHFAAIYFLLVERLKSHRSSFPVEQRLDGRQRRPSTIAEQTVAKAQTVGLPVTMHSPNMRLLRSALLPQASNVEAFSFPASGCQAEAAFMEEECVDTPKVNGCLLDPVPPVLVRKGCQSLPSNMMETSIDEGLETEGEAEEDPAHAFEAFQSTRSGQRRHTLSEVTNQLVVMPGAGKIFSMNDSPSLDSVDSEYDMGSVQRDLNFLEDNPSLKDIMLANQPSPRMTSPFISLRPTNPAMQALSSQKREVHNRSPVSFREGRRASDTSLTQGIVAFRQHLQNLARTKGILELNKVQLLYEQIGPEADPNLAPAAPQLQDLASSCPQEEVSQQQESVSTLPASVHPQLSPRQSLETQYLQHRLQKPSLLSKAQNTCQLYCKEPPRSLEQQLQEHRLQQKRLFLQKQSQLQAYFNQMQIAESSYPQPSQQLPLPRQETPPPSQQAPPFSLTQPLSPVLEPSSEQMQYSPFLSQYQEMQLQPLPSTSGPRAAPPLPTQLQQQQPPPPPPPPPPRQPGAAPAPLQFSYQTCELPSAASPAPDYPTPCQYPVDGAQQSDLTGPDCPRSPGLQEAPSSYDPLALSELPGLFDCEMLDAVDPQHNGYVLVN", "assay": "SIK2 Enzymatic Assay Version 2 (High ATP)", "assay_type": "biochemical", "settings": "3 mM ATP and 200 μM HDAC5tide final, ADP-Glo Max luminescence", "description": "All steps were performed at room temperature. Compounds were pre-plated onto an assay plate using an Echo acoustic dispenser (Labcyte, […] or […]) at 80 nL per well. Enzyme prepared in assay buffer at 6 nM (2× final concentration) was added at 4 μL per well using the Multidrop Combi (Thermo Fisher-used for all additions in this assay) to the assay plate, spun for 1 min at 1000 rpm (Allegra 6KR Beckman Coulter centrifuge), and incubated with compound for 30 minutes. […] ADP-Glo Max Reagent (prepared and aliquoted as per manufacturer instructions) was then added at 8 μL per well, spun and incubated for 2 hours. ADP-Glo Max Detection (prepared and aliquoted as per manufacturer instructions) was added at 8 μL per well to the assay plate, which was spun and incubated for 1 hour. The plate was then read on the Pherastar (BMG Labtech) using a luminescence read. Gain was set between 2200-2500.", "units": {"IC50": "nM"}, "values": [{"smiles": "CN1CC[C@@H]1COc1cnn(C)c1-c1ccn2nc(NC(=O)[C@@H]3C[C@@H]3c3ccccc3)cc2c1", "note": "(mixture of isomers) [Example 473, cis-N-[5-[2-methyl-4-[(1-methylazetidin-2-yl)methoxy]pyrazol-3-yl]pyrazolo[1,5-a]pyridin-2-yl]-2-phenyl-cyclopropanecarboxamide]", "IC50": 113}, {"smiles": "CN1CC2(CCOCC2)C1COc1cnn(C)c1-c1ccn2nc(NC(=O)C3CC3)cc2c1", "note": "(racemic) [Example 13, (rac)-N-[5-[2-methyl-4-[(2-methyl-7-oxa-2-azaspiro[3.5]nonan-3-yl)methoxy]pyrazol-3-yl]pyrazolo[1,5-a]pyridin-2-yl]cyclopropanecarboxamide]", "IC50": 71.5}, {"smiles": "CN1CC2(CC2)C1COc1cnn(C)c1-c1ccn2nc(NC(=O)C3CC3)cc2c1", "note": "(racemic) [Example 51, (rac)-N-[5-[2-methyl-4-[(5-methyl-5-azaspiro[2.3]hexan-6-yl)methoxy]pyrazol-3-yl]pyrazolo[1,5-a]pyridin-2-yl]cyclopropanecarboxamide]", "IC50": 47}, {"smiles": "CN1CCC1(C)COc1cnn(C)c1-c1ccn2nc(NC(=O)C3CC3)cc2c1", "note": "(racemic) [Example 54, (rac)-N-[5-[4-[(1,2-dimethylazetidin-2-yl)methoxy]-2-methyl-pyrazol-3-yl]pyrazolo[1,5-a]pyridin-2-yl]cyclopropanecarboxamide]", "IC50": 178}, {"smiles": "CN1CC(F)(F)C1COc1cnn(C)c1-c1ccn2nc(NC(=O)C3CC3)cc2c1", "note": "(racemic) [Example 60, rac-N-[5-[4-[(3,3-difluoro-1-methyl-azetidin-2-yl)methoxy]-2-methyl-pyrazol-3-yl]pyrazolo[1,5-a]pyridin-2-yl]cyclopropanecarboxamide]", "IC50": 230}, {"smiles": "CN1CC[C@@H]1COc1cnn(C)c1-c1ccn2nc(NC(=O)[C@H]3C[C@@H]3C(F)(F)F)cc2c1", "note": "(racemic) [Example 70, trans-N-[5-[2-methyl-4-[((2R)-1-methylazetidin-2-yl)methoxy]pyrazol-3-yl]pyrazolo[1,5-a]pyridin-2-yl]-2-(trifluoromethyl)cyclopropanecarboxamide]", "IC50": 219}, {"smiles": "CN1CC[C@@H]1COc1cnn(C)c1-c1ccn2nc(NC(=O)[C@H]3C[C@@H]3c3ccccc3)cc2c1", "note": "(racemic) [Example 71, trans-N-[5-[2-methyl-4-[((2R)-1-methylazetidin-2-yl)methoxy]pyrazol-3-yl]pyrazolo[1,5-a]pyridin-2-yl]-2-phenyl-cyclopropanecarboxamide]", "IC50": 22.3}, {"smiles": "COC1(COc2cnn(C(F)F)c2-c2ccn3nc(Nc4cc(C)nc(C)n4)cc3c2)CCNC1", "note": "(racemic) [Example 100, (RS)-5-[2-(difluoromethyl)-4-[(3-methoxypyrrolidin-3-yl)methoxy]pyrazol-3-yl]-N-(2,6-dimethylpyrimidin-4-yl)pyrazolo[1,5-a]pyridin-2-amine]", "IC50": 12.4}, {"smiles": "Cc1cc(Nc2cc3cc(-c4c(OCC5(F)CCNC5)cnn4C(F)F)ccn3n2)nc(C)n1", "note": "(racemic) [Example 101, (RS)-5-[2-(difluoromethyl)-4-[(3-fluoropyrrolidin-3-yl)methoxy]pyrazol-3-yl]-N-(2,6-dimethylpyrimidin-4-yl)pyrazolo[1,5-a]pyridin-2-amine]", "IC50": 7.2}, {"smiles": "Cn1ncc(COC2CNCC2(F)F)c1-c1ccn2nc(NC(=O)C3CC3)cc2c1", "note": "(racemic) [Example 184, (RS)—N-[5-[4-[(4,4-difluoropyrrolidin-3-yl)oxymethyl]-2-methyl-pyrazol-3-yl]pyrazolo[1,5-a]pyridin-2-yl]cyclopropanecarboxamide]", "IC50": 14.5}, {"smiles": "COC1CNC[C@@H]1Oc1noc(C)c1-c1ccn2nc(NC(=O)C3CC3)cc2c1", "note": "(mixture of isomers) [Example 200, (rac-cis)-N-[5-[3-(4-methoxypyrrolidin-3-yl)oxy-5-methyl-isoxazol-4-yl]pyrazolo[1,5-a]pyridin-2-yl]cyclopropanecarboxamide]", "IC50": 29.4}, {"smiles": "COC1(COc2noc(C)c2-c2ccn3nc(NC(=O)C4CC4)cc3c2)CCNC1", "note": "(racemic) [Example 205, (RS)—N-[5-[3-[(3-methoxypyrrolidin-3-yl)methoxy]-5-methyl-isoxazol-4-yl]pyrazolo[1,5-a]pyridin-2-yl]cyclopropanecarboxamide]", "IC50": 23.5}, {"smiles": "Cc1onc(O[C@@H]2CNC[C@@H]2F)c1-c1ccn2nc(NC(=O)C3CC3)cc2c1", "note": "(racemic) [Example 208, (rac-cis)-N-[5-[3-(4-fluoropyrrolidin-3-yl)oxy-5-methyl-isoxazol-4-yl]pyrazolo[1,5-a]pyridin-2-yl]cyclopropanecarboxamide]", "IC50": 11.5}, {"smiles": "Cc1onc(O[C@@H]2CCNC[C@@H]2F)c1-c1ccn2nc(NC(=O)C3CC3)cc2c1", "note": "(racemic) [Example 211, (rac-cis)-N-[5-[3-[(3-fluoro-4-piperidyl)oxy]-5-methyl-isoxazol-4-yl]pyrazolo[1,5-a]pyridin-2-yl]cyclopropanecarboxamide]", "IC50": 32.5}, {"smiles": "Cc1onc(O[C@H]2C[C@H]3C[C@@H]2CN3)c1-c1ccn2nc(NC(=O)C3CC3)cc2c1", "note": "(racemic) [Example 212, Exo-Rac-N-[5-[3-(2-azabicyclo[2.2.1]heptan-5-yloxy)-5-methyl-isoxazol-4-yl]pyrazolo[1,5-a]pyridin-2-yl]cyclopropanecarboxamide]", "IC50": 46.4}, {"smiles": "Cn1ncc(OCC2NCC23CC3)c1-c1ccn2nc(NC(=O)C3CC3)cc2c1", "note": "(racemic) [Example 240, (RS)—N-[5-[4-(5-azaspiro[2.3]hexan-6-ylmethoxy)-2-methyl-pyrazol-3-yl]pyrazolo[1,5-a]pyridin-2-yl]cyclopropanecarboxamide]", "IC50": 28.7}, {"smiles": "Cc1cc(Nc2cc3cc(-c4c(CO[C@@H]5CN(C)C[C@H]5C)cnn4C)ccn3n2)nc(C)n1", "note": "(racemic) [Example 364, Rac-N-(2,6-dimethylpyrimidin-4-yl)-5-[4-[(1,4-dimethylpyrrolidin-3-yl)oxymethyl]-2-methyl-pyrazol-3-yl]pyrazolo[1,5-a]pyridin-2-amine]", "IC50": 2.4}, {"smiles": "Cc1cnc(Nc2cc3cc(-c4c(COC5CN(C)CC5C)cnn4C)ccn3n2)cn1", "note": "(racemic) [Example 376, Rac-CIS-5-[4-[(1,4-dimethylpyrrolidin-3-yl)oxymethyl]-2-methyl-pyrazol-3-yl]-N-(5-methylpyrazin-2-yl)pyrazolo[1,5-a]pyridin-2-amine]", "IC50": 4.3}, {"smiles": "CO[C@@H]1CN(C)C[C@@H]1Oc1cnn(C)c1-c1ccn2nc(NC(=O)C3CC3)cc2c1", "note": "(racemic) [Example 409, (rac-cis)-N-[5-[4-(4-methoxy-1-methyl-pyrrolidin-3-yl)oxy-2-methyl-pyrazol-3-yl]pyrazolo[1,5-a]pyridin-2-yl]cyclopropanecarboxamide]", "IC50": 170}, {"smiles": "CO[C@H]1CNC[C@@H]1Oc1cnn(C)c1-c1ccn2nc(NC(=O)C3CC3)cc2c1", "note": "(racemic) [Example 421, (rac-trans)-N-[5-[4-(4-methoxypyrrolidin-3-yl)oxy-2-methyl-pyrazol-3-yl]pyrazolo[1,5-a]pyridin-2-yl]cyclopropanecarboxamide]", "IC50": 116}, {"smiles": "Cc1cc(Nc2cc3cc(-c4c(OC[C@@H]5CCO[C@@H]5C)cnn4C)ccn3n2)nc(C)n1", "note": "(relative stereo) [Example 295, (2*R, 3*S)—N-(2,6-dimethylpyrimidin-4-yl)-5-[2-methyl-4-[(2-methyltetrahydrofuran-3-yl)methoxy]pyrazol-3-yl]pyrazolo[1,5-a]pyridin-2-amine]", "IC50": 24.5}, {"smiles": "CO[C@@H]1CN(C)C[C@@H]1Oc1noc(C)c1-c1ccn2nc(NC(=O)C3CC3)cc2c1", "note": "(relative stereo) [Example 317, *S, *R—N-[5-[3-(4-methoxy-1-methyl-pyrrolidin-3-yl)oxy-5-methyl-isoxazol-4-yl]pyrazolo[1,5-a]pyridin-2-yl]cyclopropanecarboxamide]", "IC50": 67.8}, {"smiles": "Cn1ncc(OC[C@H]2CCN2C[C@@H]2CCCO2)c1-c1ccn2nc(NC(=O)C3CC3)cc2c1", "note": "(relative stereo) [Example 353, (*S)—N-[5-[2-methyl-4-[[1-(tetrahydrofuran-2-ylmethyl)azetidin-2-yl]methoxy]pyrazol-3-yl]pyrazolo[1,5-a]pyridin-2-yl]cyclopropanecarboxamide]", "IC50": 67.9}, {"smiles": "Cc1cc(Nc2cc3cc(-c4c(CO[C@@H]5CN(C)C[C@H]5C)cnn4C)ccn3n2)nc(C)n1", "note": "(relative stereo) [Example 365, Trans-*R, *S—N-(2,6-dimethylpyrimidin-4-yl)-5-[4-[(1,4-dimethylpyrrolidin-3-yl)oxymethyl]-2-methyl-pyrazol-3-yl]pyrazolo[1,5-a]pyridin-2-amine]", "IC50": 1.3}, {"smiles": "Cc1cc(Nc2cc3cc(-c4c(CO[C@@H]5CN(C)C[C@H]5C)cnn4C)ccn3n2)nc(C)n1", "note": "(relative stereo) [Example 366, Trans-*S, *R—N-(2,6-dimethylpyrimidin-4-yl)-5-[4-[(1,4-dimethylpyrrolidin-3-yl)oxymethyl]-2-methyl-pyrazol-3-yl]pyrazolo[1,5-a]pyridin-2-amine]", "IC50": 1.6}, {"smiles": "Cc1cnc(Nc2cc3cc(-c4c(CO[C@@H]5CN(C)C[C@@H]5C)cnn4C)ccn3n2)cn1", "note": "(relative stereo) [Example 380, CIS—*S, *S-5-[4-[(1,4-dimethylpyrrolidin-3-yl)oxymethyl]-2-methyl-pyrazol-3-yl]-N-(5-methylpyrazin-2-yl)pyrazolo[1,5-a]pyridin-2-amine]", "IC50": 3.1}, {"smiles": "CCN1CC2(CC2)[C@@H]1COc1cnn(C)c1-c1ccn2nc(NC(=O)C3CC3)cc2c1", "note": "(single isomer, unassigned) [Example 16, (*R)—N-(5-(4-((5-Ethyl-5-azaspiro[2.3]hexan-4-yl)methoxy)-1-methyl-1H-pyrazol-5-yl)pyrazolo[1,5-a]pyridin-2-yl)cyclopropanecarboxamide]", "IC50": 219}]}]}
